Laboratory results from patent US10329289B2, “6,7-dihydro-5H-pyrrolo[3,4-B]pyridin-5-one allosteric modulators of the M4 muscarinic acetylcholine receptor” (Merck Sharp & Dohme Corp., priority 2015, dated 2019).

These compounds were tested against T1, human M4 muscarinic acetylcholine receptor (Homo sapiens, UniProt P08173) (assay: human FLIPR-based M4 PAM assay (Ca2+ mobilization, CHO-K1 cells with human M4 receptor and Gαqi5)). Conditions: acetylcholine at 20% of maximum response, read-out: M4 PAM IP.
T1 construct: expressed in transfected cells; host or cells: CHO-K1
T1 sequence (P08173 1-479): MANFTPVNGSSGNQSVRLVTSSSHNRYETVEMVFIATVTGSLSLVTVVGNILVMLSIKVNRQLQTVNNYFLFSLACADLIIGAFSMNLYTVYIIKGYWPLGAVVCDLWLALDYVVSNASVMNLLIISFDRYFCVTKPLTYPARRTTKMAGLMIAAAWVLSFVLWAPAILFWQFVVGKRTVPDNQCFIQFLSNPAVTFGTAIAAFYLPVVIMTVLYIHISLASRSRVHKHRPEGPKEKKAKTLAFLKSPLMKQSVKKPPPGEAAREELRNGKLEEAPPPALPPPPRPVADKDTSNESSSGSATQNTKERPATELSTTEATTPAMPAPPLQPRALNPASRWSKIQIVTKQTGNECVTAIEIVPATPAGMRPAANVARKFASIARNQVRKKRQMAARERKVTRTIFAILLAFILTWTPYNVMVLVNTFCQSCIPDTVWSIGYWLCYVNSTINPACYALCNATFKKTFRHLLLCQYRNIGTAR
Format: cell-based
Description: In a typical experiment the M4 muscarinic acetylcholine receptor modulating activity of the compounds of the present invention was determined in accordance with the following experimental method. CHO-K1 cells stably transfected with human M4 receptor and chimeric G-protein Gαqi5 (Coward P, et al., Analytical Biochemistry, 270:242-248 (1999)) are thawed from liquid N2 storage, resuspended in growth medium, plated in black, clear bottom 384 well plates, and incubated 16-20 hours at 37° C., 5% CO2. On the day of assay, growth medium is removed, the cells are washed 2 times with wash buffer, and cells are incubated in dye loading buffer at 37° C., 5% CO2 for ˜1 hour. […] Next, 10 uL of acetylcholine is added (final concentration calculated so as to achieve 20% of the maximum acetycholine response), and the fluorescence reading is continued for 3.5 min. In some cases, a third addition of acetylcholine (final concentration calculated to achieve 70% of the maximal acetylcholine response) is performed. The resulting dose response curves are fit to a 4 parameter logistic equation and the final result is determined as the inflection point (IP) of the curve
CHO-K1 cells stably transfected with human M4 receptor and chimeric G-protein Gαqi5 are thawed from liquid N2 storage, resuspended in growth medium, plated in black, clear bottom 384 well plates, and incubated 16-20 hours at 37° C., 5% CO2.
On the day of assay, growth medium is removed, the cells are washed 2 times with wash buffer, and cells are incubated in dye loading buffer at 37° C., 5% CO2 for ˜1 h. […] Next, 10 uL of acetylcholine is added (final concentration calculated so as to achieve 20% of the maximum acetycholine response), and the fluorescence reading is continued for 3.5 min. In some cases, a third addition of acetylcholine (final concentration calculated to achieve 70% of the maximal acetylcholine response) is performed.

SMILES | EC50
Cc1cc2c(nc1N1CCC(Oc3cccnc3)CC1)CNC2=O [Example 68, 3-methyl-2-(4-(pyridin-3-yloxy)piperidin-1-yl)-6,7-dihydro-5H-pyrrolo[3,4-b]pyridin-5-one] | 79 nM
Cc1cc2c(nc1N1CCC(Oc3ccc4c(cnn4C)c3)CC1)CN(C)C2=O [Example 32, 3,6-dimethyl-2-(4-((l-methyl-1H-indazol-5-yl)oxy)piperidin-1-yl)-6,7-dihydro-5H-pyrrolo[3,4-b]pyridin-5-one] | 37 nM
CCc1cc2c(nc1N1CCC(Oc3ccc4c(c3)CCOC4)CC1)CN(CCO)C2=O [Example 266F, 3-ethyl-6-(2-hydroxyethyl)-2-(4-(isochroman-6-yloxy)piperidin-1-yl)-6,7-dihydro-5H-pyrrolo[3,4-b]pyridin-5-one] | 57 nM
COCCOc1ccc(O[C@@H]2CCN(c3nc4c(cc3C)C(=O)NC4)C[C@H]2F)cn1 [Example 60, 2-((3R,4R)-3-fluoro-4-((6-(2-methoxyethoxy)pyridin-3-yl)oxy)piperidin-1-yl)-3-methyl-6,7-dihydro-5H-pyrrolo[3,4-b]pyridin-5-one] | 207 nM
Cc1cc2c(nc1N1CCC(OCC3(F)CC3)CC1)CNC2=O [Example 64A, 2-(4-((1-fluorocyclopropyl)methoxy)piperidin-1-yl)-3-methyl-6,7-dihydro-5H-pyrrolo[3,4-b]pyridin-5-one] | 192 nM
COc1ccc(OC2CCN(c3nc4c(cc3C=O)C(=O)NC4)CC2)cn1 [Example 306, 2-(4-((6-Methoxypyridin-3-yl)oxy)piperidin-1-yl)-5-oxo-6,7-dihydro-5H-pyrrolo[3,4-b]pyridine-3-carbaldehyde] | 320 nM
Cc1cc2c(nc1N1CC[C@H](OCC3(C)CC3)C(F)(F)C1)CNC2=O [Example 171B, (S)-2-(3,3-difluoro-4-((1-methylcyclopropyl)meth-oxy)piperidin-1-yl)-3-methyl-6,7-dihydro-5H-pyrrolo[3,4-b]pyridin-5-one] | 14 nM
Cc1cc2c(nc1N1CCC(Oc3cccc(CO)c3)CC1)CNC2=O [Example 309, 2-(4-(3-(Hydroxymethyl)phenoxy)piperidin-1-yl)-3-methyl-6,7-dihydro-5H-pyrrolo[3,4-b]pyridin-5-one] | 47 nM
Cc1cc2c(nc1N1CCC(Oc3cnn(C4CC4)c3)CC1)CNC2=O [Example 311A, 2-(4-((1-cyclopropyl-1H-pyrazol-4-yl)oxy)piperidin-1-yl)-3-methyl-6,7-dihydro-5H-pyrrolo[3,4-b]pyridin-5-one] | 108 nM
COc1ccc(OC2CCN(c3nc4c(c(C)c3C)C(=O)N(C)[C@@H]4CO)CC2)cn1 [Example 343A, (S)-7-(hydroxymethyl)-2-(4-((6-methoxypyridin-3-yl)oxy)piperidin-1-yl)-3,4,6-trimethyl-6,7-dihydro-5H-pyrrolo[3,4-b]pyridin-5-one] | 27 nM
Cc1cc2c(nc1N1CCC(Oc3ccc4c(c3)COC4)CC1)CN([C@@H](C)CO)C2=O [Example 268D, (S)-2-(4-((1,3-dihydro-2-benzofuran-5-yl)oxy)piperidin-1-yl)-6-(1-hydroxypropan-2-yl)-3-methyl-6,7-dihydro-5H-pyrrolo[3,4-b]pyridin-5-one] | 28 nM
COc1cc(OC2CCN(c3nc4c(cc3C)C(=O)NC4)CC2)ccn1 [Example 90, 2-(4-((2-methoxypyridin-4-yl)oxy)piperidin-1-yl)-3-methyl-6,7-dihydro-5H-pyrrolo[3,4-b]pyridin-5-one] | 94 nM
Cc1cc2c(nc1N1CCC(OCC3CCC3)CC1)CNC2=O [Example 172, 2-(4-(cyclobutylmethoxy)piperidin-1-yl)-3-methyl-6,7-dihydro-5H-pyrrolo[3,4-b]pyridin-5-one] | 125 nM
Cc1cc2c(nc1N1CCC(Oc3ccnc(OC(F)(F)F)c3)CC1)CNC2=O [Example 102, 3-methyl-2-(4-((2-(trifluoromethoxy)pyri-din-4-yl)oxy)piperidin-1-yl)-6,7-dihydro-5H-pyrrolo[3,4-b]pyridin-5-one] | 690 nM
Cc1cc2c(nc1N1CCC(Oc3ccc4c(c3)CC[C@@H]4CCO)CC1)CNC2=O [Example 157A, (R)-2-(4-((1-(2-hydroxyethyl)-2,3-dihydro-1H-inden-5-yl)oxy)piperidin-1-yl)-3-methyl-6,7-dihydro-5H-pyrrolo[3,4-b]pyridin-5-one] | 93 nM
Cc1cc2c(nc1N1CCC(Oc3ccc(OC(F)(F)F)nc3)CC1)CNC2=O [Example 124, 3-methyl-2-(4-((6-(trifluoromethoxy)pyri-din-3-yl)oxy)piperidin-1-yl)-6,7-dihydro-5H-pyrrolo[3,4-b]pyridin-5-one] | 362 nM
Cc1cc2c(nc1N1CCC(Oc3cnc4c(c3)COC4)CC1)CN(CCO)C2=O [Example 236A, 2-(4-((5,7-dihydrofuro[3,4-b]pyridin-3-yl)oxy)piperidin-1-yl)-6-(2-hydroxyethyl)-3-methyl-6,7-dihydro-5H-pyrrolo[3,4-b]pyridin-5-one] | 146 nM
COc1ccc(OC2CCN(c3nc4c(cc3C)C(=O)N(C3CC3)C4)CC2)cn1 [Example 269, 6-Cyclopropyl-2-(4-((6-methoxypyridin-3-yl)oxy)piperidin-1-yl)-3-methyl-6,7-dihydro-5H-pyrrolo[3,4-b]pyridin-5-one] | 65 nM
COc1ccc(O[C@@H]2CCN(c3nc4c(cc3C)C(=O)N(C)C4)C[C@@H]2F)cn1 [Example 33, 2-((3S,4R)-3-fluoro-4-((6-methoxypyridin-3-yl)oxy)piperidin-1-yl)-3,6-dimethyl-6,7-dihydro-5H-pyrrolo[3,4-b]pyridin-5-one] | 22 nM
Cc1cccc(OC2CCN(c3nc4c(cc3C)C(=O)NC4)CC2)c1 [Example 78, 3-methyl-2-(4-(m-tolyloxy)piperidin-1-yl)-6,7-dihydro-5H-pyrrolo[3,4-b]pyridin-5-one] | 33 nM
Cc1cc2c(nc1N1CCC(Oc3ccc4c(c3)COC4)CC1)CN(CCO)C2=O [Example 263, 2-(4-((1,3-dihydro-2-benzofuran-5-yl)oxy)piperidin-1-yl)-6-(2-hydroxyethyl)-3-methyl-6,7-dihydro-5H-pyrrolo[3,4-b]pyridin-5-one] | 57 nM
Cc1cc2c(nc1N1CCC(Oc3ccc(Cl)cc3)CC1)CNC2=O [Example 76, 2-(4-(4-chlorophenoxy)piperidin-1-yl)-3-methyl-6,7-dihydro-5H-pyrrolo[3,4-b]pyridin-5-one] | 80 nM
COc1ccc(OC2CCN(c3nc4c(cc3C(F)(F)F)C(=O)NC4)CC2)cn1 [Example 230, 2-(4-((6-Methoxypyridin-3-yl)oxy)piperidin-1-yl)-3-(trifluoromethyl)-6,7-dihydro-5H-pyrrolo[3,4-b]pyridin-5-one] | 2120 nM
Cc1cc2c(nc1N1CCC(Oc3cccc(C#N)c3)CC1)CN(P(=O)(O)O)C2=O [Example 325, Ammonium (2-(4-(3-cyanophenoxy)piperidin-1-yl)-3-methyl-5-oxo-5,7-dihydro-6H-pyrrolo[3,4-b]pyridin-6-yl)phosphonate] | 204 nM
Cc1nc2ccc(OC3CCN(c4nc5c(cc4C)C(=O)NC5)CC3)cc2o1 [Example 69, 3-methyl-2-(4-((2-methylbenzo[d]oxazol-6-yl)oxy)piperidin-1-yl)-6,7-dihydro-5H-pyrrolo[3,4-b]pyridin-5-one] | 88 nM
Cc1cc2c(nc1N1CCC(Oc3ccc4[nH]nc(C#N)c4c3)CC1)CNC2=O [Example 316, 5-((1-(3-Methyl-5-oxo-6,7-dihydro-5H-pyrrolo[3,4-b]pyridin-2-yl)piperidin-4-yl)oxy)-1H-indazole-3-carbonitrile] | 198 nM
Cc1cc2c(nc1N1CCC(Oc3cccc(C#N)c3)CC1)CN(CCN(C)C)C2=O [Example 236, 3-((1-(6-(2-(dimethylamino)ethyl)-3-methyl-5-oxo-6,7-dihydro-5H-pyrrolo[3,4-b]pyridin-2-yl)piperidin-4-yl)oxy)benzonitrile] | 317 nM
CCN1Cc2nc(N3CCC(Oc4ccccc4)CC3)c(C)cc2C1=O [Example 243, 6-ethyl-3-methyl-2-(4-phenoxypiperidin-1-yl)-6,7-dihydro-5H-pyrrolo[3,4-b]pyridin-5-one] | 73 nM
